This is an account of results in patent US8486924B2, “Taxane delivery system” (Celator Pharmaceuticals, Inc., priority 2007, dated 2013).

For data set [1], the system named is MCF-7 human tumor cell line. To be noted: read-out: IC50 values MCF-7; prodrug/POPC/2kPS3k (1:1:2) formulations; 72 hours; MTT; ± SD.
Data set [2] relates to A2780 human tumor cell line. Kind of data set: MTT growth inhibition, A2780 cells, 72 hours. Particulars: read-out: IC50 values A2780, prodrug/POPC/2kPS3k (1:1:2) formulations, ± SD.
Data set [3] has as its system HT29 human colon carcinoma cells. Particulars: Q4Dx6, nanoparticle formulations; for therapeutic activity in HT29 model: 34 μmol/kg dose; for treatment induced delay in reaching a mean tumor size of 500 mm^3: HT29 model, 36 μmol/kg. How it is done: Female athymic nude mice (7-8 weeks old) were inoculated subcutaneously with 100 μl HT29 human colon carcinoma cells (2×10^6 cells) using a 26 gauge needle. Mice were randomly grouped (n=6/group) with a mean tumor size between 80 and 120 mg prior to first treatment. […] Subsequent injections were made according to the designated schedule. Tumor length and width measurements, body weight and in life observations were recorded 2-3 times per week. Tumor weight was calculated according to the formula (L×W^2)/2.
The relative efficacies of nanoparticle formulations of 1, 2, 4, 5, 6 and 7 were determined in the HT29 model using a 36 μmol/kg dose on a Q4Dx6 schedule (FIG. 3). Saline was used as a negative control.
The activity of 7 in POPC/2.5kPS3k nanoparticle formulations relative to paclitaxel was determined by comparing the efficacy of doses ranging from 0.25 to 3 mole equivalents of paclitaxel (FIG. 4) in the HT29 tumor model. Taxol® dosed at 23 μmol/kg on a Q2Dx5 schedule was used as a positive control.
The tumor growth data was analyzed by two methods to determine what dose of 7 would be equivalent to the Taxol® positive control.

Data set [4] concerns MCF-7 breast carcinoma cell line. Particulars: literature reference 7; cited from earlier work.
The conditions of data set [5]: unbuffered processed plasma sample.
From the text: Methanol:acetonitrile 1:4 (v:v) was effective in near complete precipitation of plasma proteins and liberation of the prodrug from the nanoparticle.
For data set [6] the following is noted: mouse, in vivo.
Method: Athymic nude mice (n=3/timepoint) were injected iv with test samples (10 μl/g body weight, to a maximum of 250 μl). Blood was collected at the designated time point by cardiac puncture and placed into EDTA coated microtainer tubes (BD Biosciences). The tubes were centrifuged at 2800 rpm for 10 minutes. Plasma was recovered and 50 μl aliquots analyzed by HPLC for drug content. Samples containing ^3H—CHE (50 μl) were diluted with PicoFluor40™ scintillation fluid (Packard) and counted on a Beckman-Coulter LS 6500 Multipurpose scintillation counter. The total drug (counts) per mouse in the blood compartment was calculated assuming a plasma volume of 0.04125 mL per gram of body weight.
Elimination studies tracking both the prodrug and the particle were conducted to obtain a more accurate description of the partitioning behavior of the prodrugs in vivo (FIG. 1). Prodrug elimination was followed by HPLC, while particle elimination rates were determined by labeling nanoparticles with tritiated cholesterylhexadecyl ether (3H—CHE).
Formulations comprised of 1/VES/2kPS3k (1:1:2) and 2/VES/2kPS3k (1:1:2) were labeled with trace amounts of ^3H—CHE and plasma levels of both the label and prodrug were monitored in Foxn1^nu mice (FIG. 1, Panel A).
Effect of prodrug partitioning on plasma drug elimination was determined. The prodrug panel was screened using prodrug/POPC/2kPS3k (1:1:2) nanoparticles in Foxn1^nu mice to determine elimination rates for the different prodrug conjugates (FIG. 2). […] Conjugates were formulated at a concentration of 0.7 mg/mL.
In order to estimate the partitioning half-life for each prodrug, it was assumed that 1 tracked the particle elimination rate based on the results discussed above. The elimination of all other prodrugs were then fitted to four parameter double exponential decay curves and normalized against 1.
For data set [7] the following is noted: vortexing 30 seconds. How it is done:
The physical stability of formulations was investigated by examining changes in particle size after vortexing prodrug/co-lipid/2.5kPS3k (1:1:2) nanoparticles in water, 150 mM saline or 300 mM sucrose (Table 1). […] The increase in particle size was monitored by using dynamic light scattering to measure the Z average (the intensity weighted mean size of the particle distribution) value for samples before and after vigorous vortexing. The change in the Zave value was used as surrogate readout for the formation of aggregates or precipitates resulting from mechanical instability, where a higher value for ΔZave indicated a higher level of aggregation or precipitation (Table 1).

The conditions of data set [8]: volume weighted average. How it is done:
The prodrug, co-lipid and stabilizer polymers (typically on a 1:1:2 w/w basis) were dissolved in ethanol/THF (4:1) at a concentration of 40 mg/ml. The solvent was rapidly diluted with water using a four port CVIJ mixer^13, 14 with flow rates set at […] (solvent/water/water/water). Flow rates were controlled using Harvard Apparatus PHD2000 syringe pumps. The resultant solution was then dialyzed against water to remove residual solvent. […] When higher concentrations were required the dialyzed solution was diluted with equi-volumes of 600 mM sucrose and then concentrated using a 100 kD, 0.5 mm lumen, 60 cm path length MidGee hoop cartridge (GE Healthcare Life Sciences, Piscataway, N.J.) with a peristaltic pump. Particle size was determined using a Malvern Zetasizer Nano-ZS particle sizer and reported as volume weighted data.
Formulations were composed of a prodrug, a co-lipid and an amphipathic stabilizer in a weight ratio of 1:1:2, respectively at a concentration of 40 mg per mL of solvent. […] Poly(ethylene glycol)-b-polystyrene (2kPS3k or 2.5kPS3k) was used as the amphipathic stabilizer. Other stabilizers may also be used.

The mark [9] stands for this setting: co-lipid POPC, prodrug/co-lipid/2.5kPS3k (1:1:2).
[10] abbreviates: prodrug/POPC/2.5kPS3k (1:1:2) nanoparticles in water.

Read-outs that look alike come from different tables or passages of the source.

For “2′-O-(4″-O-tocopherylsuccinoyl)-paclitaxel [Prodrug 1]”, the results for the IC50 in data set [1] and in data set [2] were 158 ± 72 nM and 192 nM, respectively. Also, the “therapeutic activity in HT29 model” value in data set [3] is “no evidence of any therapeutic activity”.
As to `CCCCCCCCCCCCCCC(Br)C(=O)O[C@@H](C(=O)O[C@H]1C[C@@]2(O)[C@@H](OC(=O)c3ccccc3)[C@@H]3[C@]4(OC(C)=O)CO[C@@H]4C[C@H](O)[C@@]3(C)C(=O)[C@H](OC(C)=O)C(=C1C)C2(C)C)[C@@H](NC(=O)c1ccccc1)c1ccccc1` (stereo partly shown) [2′-(2″-bromohexadecanoyl)paclitaxel], in data set [4], the IC50 is 70 nM.
Consider `CCCCCCCCCCCCCCCC(=O)OC(C(=O)OC1CC2(O)C(OC(=O)c3ccccc3)C3C4(OC(C)=O)COC4CC(O)C3(C)C(=O)C(OC(C)=O)C(=C1C)C2(C)C)C(NC(=O)c1ccccc1)c1ccccc1` (stereo not shown) [2′-O-hexadecanoylpaclitaxel], for which the IC50 in data set [4] is 8600 nM.
For `CC(=O)O[C@H]1C(=O)[C@@]2(C)[C@H]([C@H](OC(=O)c3ccccc3)[C@]3(O)C[C@H](OC(=O)[C@H](O)[C@@H](NC(=O)c4ccccc4)c4ccccc4)C(C)=C1C3(C)C)[C@]1(OC(C)=O)CO[C@@H]1C[C@@H]2O` [Paclitaxel], the IC50 in data set [4] is below 1 nM.
As to `CCCCCCCC/C=C\CCCCCCCCOC(=O)CCC(=O)O[C@@H](C(=O)O[C@H]1C[C@@]2(O)[C@@H](OC(=O)c3ccccc3)[C@@H]3[C@]4(OC(C)=O)CO[C@@H]4C[C@H](O)[C@@]3(C)C(=O)[C@H](OC(C)=O)C(=C1C)C2(C)C)[C@@H](NC(=O)c1ccccc1)c1ccccc1` [Prodrug 2, 2′-O-(4″-O-oleylsuccinoyl)-paclitaxel], in data set [5] (after 68 hours), the “prodrug remaining after processing plasma samples” value is recorded as “approximately 25%”. Further, the IC50 in data set [1] amounted to 67 ± 5.9 nM. For the same compound, the “prodrug plasma clearance compared with 3H-CHE label” value in data set [6] (iv) is given as “cleared significantly faster”. In data set [7] (setting [9]), the “ΔZave 150 mM saline” value is on record as 43 nm, the “ΔZave 300 mM sucrose” value was determined as 10 nm and the ΔZave water was found to be 20 nm. The IC50 in data set [2] came to 75.1 nM. The “therapeutic activity in HT29 model” value in data set [3] is “no evidence of any therapeutic activity”. In addition, the Diameter in data set [8] (setting [10]) amounted to 26 nm.
Turning to `CC(=O)OC1C(=O)C2(C)C(O)CC3OCC3(OC(C)=O)C2C(OC(=O)c2ccccc2)C2(O)CC(OC(=O)C(OC(=O)COCC(=O)Oc3c(C)c(C)c4c(c3C)CCC(C)(CCCC(C)CCCC(C)CCCC(C)C)O4)C(NC(=O)c3ccccc3)c3ccccc3)C(C)=C1C2(C)C` (stereo not shown) [Prodrug 3, 2′-O-(5″-O-tocopheryldiglycoloyl)-paclitaxel], in data set [1], the IC50 came out at 13.4 ± 2.4 nM. Further, the partitioning half life result in data set [6] was “approximately 13 h”. Also, in data set [7] (setting [9]), the “ΔZave 150 mM saline” value was 55 nm and the ΔZave water worked out at 125 nm. In data set [2], the IC50 came to 25.3 nM. Moreover, the Diameter in data set [8] (setting [10]) is recorded as 24 nm.
`CCCCCCCC/C=C\CCCCCCCCOC(=O)COCC(=O)O[C@@H](C(=O)O[C@H]1C[C@@]2(O)[C@@H](OC(=O)c3ccccc3)[C@@H]3[C@]4(OC(C)=O)CO[C@@H]4C[C@H](O)[C@@]3(C)C(=O)[C@H](OC(C)=O)C(=C1C)C2(C)C)[C@@H](NC(=O)c1ccccc1)c1ccccc1` [Prodrug 4, 2′-O-(5″-O-oleyldiglycoloyl)-paclitaxel]: the IC50 in data set [1] worked out at 15.9 ± 0.7 nM. For the same compound, in data set [7] (setting [9]), the “ΔZave 150 mM saline” value amounted to 25 nm, the “ΔZave 300 mM sucrose” value is 5 nm and the ΔZave water came out at 15 nm. Moreover, the IC50 in data set [2] turned out to be 28.4 nM. The “treatment induced delay in reaching a mean tumor size of 500 mm^3” value (“treatment induced delay” for short) in data set [3] stood at 3 days. Besides, the Diameter in data set [8] (setting [10]) is reported as 22 nm.
Take `CCCCCCCCCCCCCCCCCCOC(=O)COCC(=O)O[C@@H](C(=O)O[C@H]1C[C@@]2(O)[C@@H](OC(=O)c3ccccc3)[C@@H]3[C@]4(OC(C)=O)CO[C@@H]4C[C@H](O)[C@@]3(C)C(=O)[C@H](OC(C)=O)C(=C1C)C2(C)C)[C@@H](NC(=O)c1ccccc1)c1ccccc1` [Prodrug 5, 2′-O-(5″-O-octadecyldiglycoloyl)-paclitaxel]: the IC50 in data set [1] stood at 1.1 ± 1.5 nM; in data set [2] it was 20.9 ± 10.9 nM. Besides, the partitioning half life in data set [6] came to 1.7 h. In addition, the “ΔZave 150 mM saline” value is 24 nm in data set [7] (setting [9]); 372 nm in data set [7] (co-lipid VES, 2.5kPS3k); 774 nm in data set [7] (no co-lipid, 2.5kPS3k). Also, the “ΔZave 300 mM sucrose” value was 7 nm in data set [7] (setting [9]); 10 nm in data set [7] (co-lipid VES, 2.5kPS3k); 71 nm in data set [7] (no co-lipid, 2.5kPS3k). In addition, the ΔZave water in data set [7] (setting [9]) is 20 nm; in data set [7] (co-lipid VES, 2.5kPS3k) it was 3 nm; in data set [7] (no co-lipid, 2.5kPS3k) it was 109 nm. In addition, in data set [3], the “treatment induced delay” value was 4 days. Moreover, the Diameter in data set [8] (no co-lipid, prodrug/2.5kPS3k nanoparticles in water) was determined as 28 nm; in data set [8] (setting [10]), 21 nm; in data set [8] (prodrug/VES/2.5kPS3k (1:1:2) nanoparticles in water) it was 7 nm.
`CCCCCCCCCCCCCCCCCCCCOC(=O)COCC(=O)O[C@@H](C(=O)O[C@H]1C[C@@]2(O)[C@@H](OC(=O)c3ccccc3)[C@@H]3[C@]4(OC(C)=O)CO[C@@H]4C[C@H](O)[C@@]3(C)C(=O)[C@H](OC(C)=O)C(=C1C)C2(C)C)[C@@H](NC(=O)c1ccccc1)c1ccccc1` [Prodrug 6, 2′-O-(5″-O-cosanyldiglycoloyl)-paclitaxel]: in data set [5] (after 9 hours), the “hydrolysis of prodrug after processing plasma samples” value is on record as “completely hydrolyzed”. Besides, the IC50 in data set [1] stood at 16.6 ± 4.5 nM. The compound further came in with a partitioning half life in data set [6] of around 6.5 h. In data set [7] (setting [9]), the “ΔZave 150 mM saline” value amounted to 26 nm, the “ΔZave 300 mM sucrose” value is 36 nm and the ΔZave water was 21 nm. Also, the IC50 in data set [2] worked out at 29 ± 1.3 nM. The “treatment induced delay” value in data set [3] was found to be 15 days. Besides, the Diameter in data set [8] (setting [10]) is given as 23 nm.
Turning to `CC(=O)O[C@H]1C(=O)[C@@]2(C)[C@H]([C@H](OC(=O)c3ccccc3)[C@]3(O)C[C@H](OC(=O)[C@H](OC(=O)COCC(=O)O[C@H]4CC[C@@]5(C)C(=CC[C@H]6[C@@H]7CC[C@H]([C@H](C)CCCC(C)C)[C@@]7(C)CC[C@@H]65)C4)[C@@H](NC(=O)c4ccccc4)c4ccccc4)C(C)=C1C3(C)C)[C@]1(OC(C)=O)CO[C@@H]1C[C@@H]2O` [Prodrug 8, 2′-O-(5″-O-cholesteryldiglycoloyl)-paclitaxel], the IC50 in data set [1] amounted to 24.1 ± 0.6 nM. Moreover, the partitioning half life result in data set [6] is “approximately 21 h”. In addition, in data set [7] (setting [9]), the “ΔZave 150 mM saline” value was 42 nm, the “ΔZave 300 mM sucrose” value came out at 41 nm and the ΔZave water stood at 47 nm. In addition, the IC50 in data set [2] was found to be 27 ± 1.1 nM. Moreover, the Diameter in data set [8] (setting [10]) worked out at 23 nm.
Turning to `CCCCCCCCCCCCCC(=O)OC[C@H](COC(=O)COCC(=O)O[C@@H](C(=O)O[C@H]1C[C@@]2(O)[C@@H](OC(=O)c3ccccc3)[C@@H]3[C@]4(OC(C)=O)CO[C@@H]4C[C@H](O)[C@@]3(C)C(=O)[C@H](OC(C)=O)C(=C1C)C2(C)C)[C@@H](NC(=O)c1ccccc1)c1ccccc1)OC(=O)CCCCCCCCCCCCC` [Prodrug 9, 2′-O-(5″-O-(1′″,2′″-dimyristoyl-sn-glycero)diglycoloyl)-paclitaxel], the IC50 in data set [1] amounted to 32.2 ± 1.3 nM. In data set [6], this compound yielded a partitioning half life of 8.5 h. Also, in data set [7] (setting [9]), the “ΔZave 150 mM saline” value came to 171 nm, the “ΔZave 300 mM sucrose” value is given as 0 nm and the ΔZave water came to 167 nm. In addition, the IC50 in data set [2] came out at 34.7 ± 1.3 nM. Moreover, the Diameter in data set [8] (setting [10]) stood at 23 nm.
